Data reported in ChEMBL document CHEMBL5614401 (Eur J Med Chem, 2024).
The source made the active and inactive calls. The calls are words filed in the database; no cut-off is given here.

What was measured:
[1] = molecular target: T1, Solute carrier family 22 member 12 (Homo sapiens, UniProt Q96S37); test: Inhibition of human URAT1 transfected in HEK293 cells by measuring 14C-uric acid uptake at 5 uM preincubated for 30 mins followed by 14--uric acid addition and measured after 15 mins by liquid scintillation counter analysis relative to control; assay type: cell-based; details: 0.25 h, time 45 min
T1 sequence (Q96S37 whole entry): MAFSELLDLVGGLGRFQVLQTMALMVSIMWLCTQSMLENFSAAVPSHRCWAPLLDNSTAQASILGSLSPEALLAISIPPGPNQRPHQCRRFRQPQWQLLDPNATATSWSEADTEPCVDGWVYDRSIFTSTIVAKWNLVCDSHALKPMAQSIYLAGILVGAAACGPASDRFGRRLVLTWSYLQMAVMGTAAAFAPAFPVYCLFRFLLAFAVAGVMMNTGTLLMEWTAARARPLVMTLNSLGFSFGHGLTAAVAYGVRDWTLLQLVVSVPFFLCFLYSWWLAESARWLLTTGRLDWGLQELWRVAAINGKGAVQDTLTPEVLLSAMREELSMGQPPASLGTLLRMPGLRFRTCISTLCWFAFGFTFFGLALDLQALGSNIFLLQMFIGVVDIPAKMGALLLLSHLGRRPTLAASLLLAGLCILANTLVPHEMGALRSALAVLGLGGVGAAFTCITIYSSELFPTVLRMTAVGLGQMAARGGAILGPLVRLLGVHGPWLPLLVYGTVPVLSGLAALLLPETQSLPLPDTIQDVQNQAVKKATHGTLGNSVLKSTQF

[2] = molecular target: T1, Solute carrier family 22 member 12; test: Inhibition of URAT1 (unknown origin)
[3] = (§1) Renal toxicity in potassium oxonate-induced male Kunming mouse model assessed as reduction in BUN level in serum at 10 mg/kg,po via gavage administered 1 hr post-potassium oxonate challenge and measured after 7 days on day 7 potassium oxonate injected after 12 hrs fasting and measured followed by 1.5 hrs of compound administration by biochemical analyzer; assay type: organism-based; details: in vivo, 168 h, time 7 day
[4] = Half life in male Sprague-Dawley rat at 10 mg/kg, po measured after 24 hrs by LC-MS/MS analysis; assay type: ADME, organism-based; details: in vivo
[5] = as §1, with “effect on kidney damage” for “reduction in BUN level in serum”, “administration” for “administration by biochemical analyzer”; assay type: organism-based; details: in vivo, 168 h, time 7 day
[6] = Tmax in male Sprague-Dawley rat at 10 mg/kg, po measured after 24 hrs by LC-MS/MS analysis; assay type: ADME, organism-based; details: in vivo
HK-2 [7] = test: Cytotoxicity against human HK-2 cells assessed as cell viability at 100 uM incubated for 48 hrs by MTT assay; assay type: toxicity, cell-based; details: hk-2, 48 h
[8] = MRT (0 to infinity) in male Sprague-Dawley rat at 10 mg/kg, po measured after 24 hrs by LC-MS/MS analysis; assay type: ADME, organism-based; details: in vivo
Mus musculus [9] = test: (§2) Anti-hyperuricemic activity against potassium oxonate-induced male Kunming mouse model assessed as alleviation of shrinkage in kidney at 10 mg/kg, po via gavage administered 1 hr post-potassium oxonate challenge and measured after 7 days on day 7 potassium oxonate injected after 12 hrs fasting and measured followed by 1.5 hrs of compound administration by H and E staining based analysis; assay type: functional, organism-based; details: time 7.0 day
[10] = molecular target: T1, Solute carrier family 22 member 12; test: Inhibition of human URAT1 transfected in HEK293 cells by measuring 14C-uric acid uptake preincubated for 30 mins followed by 14--uric acid addition and measured after 15 mins by liquid scintillation counter analysis; assay type: cell-based
[11] = molecular target: T2, Solute carrier family 2, facilitated glucose transporter member 9 (Homo sapiens) (UniProt Q9NRM0); test: Inhibition of GLUT9 (unknown origin) overexpressed in uric acid-induced HEK293 cells at 25 uM by patch clamp analysis relative to control; assay type: cell-based
T2 sequence (whole entry): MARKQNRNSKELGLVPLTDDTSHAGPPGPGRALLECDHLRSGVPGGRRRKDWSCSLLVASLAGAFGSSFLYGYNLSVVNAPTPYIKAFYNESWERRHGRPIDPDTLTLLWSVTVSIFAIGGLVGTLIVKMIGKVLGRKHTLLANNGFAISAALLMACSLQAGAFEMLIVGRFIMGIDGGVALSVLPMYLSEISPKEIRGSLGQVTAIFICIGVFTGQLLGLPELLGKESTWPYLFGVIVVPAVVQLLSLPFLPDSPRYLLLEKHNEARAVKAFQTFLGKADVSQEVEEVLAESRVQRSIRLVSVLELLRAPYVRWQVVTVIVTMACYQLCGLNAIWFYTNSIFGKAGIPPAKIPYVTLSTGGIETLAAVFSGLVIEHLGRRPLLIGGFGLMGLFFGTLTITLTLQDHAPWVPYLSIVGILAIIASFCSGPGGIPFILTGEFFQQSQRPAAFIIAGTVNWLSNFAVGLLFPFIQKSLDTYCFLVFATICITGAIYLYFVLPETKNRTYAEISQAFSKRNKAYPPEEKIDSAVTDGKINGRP

[12] = as §1, with “CR” for “BUN”; assay type: organism-based; details: in vivo, 168 h, time 7 day
Mus musculus [13] = test: as §2, with “increase” for “alleviation of shrinkage”, “urine uric acid level” for “kidney”, “(reference value: 481.6 microM)” for “by H and E staining based analysis”; assay type: functional; details: time 7 day
Mus musculus [14] = test: as §2, with “casts formation” for “shrinkage”; assay type: functional, organism-based; details: time 7.0 day
[15] = Cmax in male Sprague-Dawley rat at 10 mg/kg, po measured after 24 hrs by LC-MS/MS analysis; assay type: ADME, organism-based; details: in vivo
Mus musculus [16] = test: as §2, with “renal tubule dilatation” for “shrinkage in kidney”; assay type: functional, organism-based; details: time 7.0 day
Mus musculus [17] = test: as §2, with “glomerular ischemia” for “shrinkage”; assay type: functional, organism-based; details: time 7.0 day
[18] = AUC (0 to infinity) in male Sprague-Dawley rat at 10 mg/kg, po measured after 24 hrs by LC-MS/MS analysis; assay type: ADME, organism-based; details: in vivo
HK-2 [19] = test: Cytotoxicity against human HK-2 cells assessed as cell viability at <100 uM incubated for 24 hrs by MTT assay; assay type: toxicity, cell-based; details: hk-2, 24 h
Mus musculus [20] = test: as §2, with “reduction” for “alleviation of shrinkage”, “serum uric acid level” for “kidney”, “administration” for “administration by H and E staining based analysis”; assay type: functional; details: time 7 day
[21] = molecular target: T3, Solute carrier family 2, facilitated glucose transporter member 9 (Homo sapiens, UniProt Q9NRM0); test: Inhibition of GLUT9 (unknown origin) overexpressed in uric acid-induced HEK293 cells by patch clamp analysis; assay type: cell-based
T3 sequence (Q9NRM0 whole entry): T2 sequence (whole entry)

Which inhibition at 5 µM [1] does the source give for CC(C)=CCc1c(O)ccc2c1OC(c1ccc(Cl)cc1)CC2=O (centres undefined) here?
The inhibition at 5 µM was 11.3%.

Which IC50 [2] does the source give for O=C(c1cc(Cl)c(O)c(Cl)c1)N1CS(=O)(=O)c2ccccc21 [DOTINURAD] here?
The IC50 was 40 nM.

Which IC50 [2] does the source give for CC(C)(Sc1ccncc1Cc1ccc(C#N)c2ccccc12)C(=O)O here?
The IC50 was 2080 nM.

Which inhibition at 5 µM [1] does the source give for CC(C)=CCc1c(O)ccc2c1OC(c1ccsc1)CC2=O (centres undefined) here?
Its inhibition at 5 µM is 72.3%.

Which results are given for C/C(=C\Cc1cccc2c1OC(c1cccs1)CC2=O)C(=O)O (centres undefined)?
Activity [3]: Non-Toxic; half-life [4]: 308 min; Activity [5]: Non-Toxic; Tmax [6]: 0.83 h; Activity (HK-2 [7]): Non-Toxic; MRT inf [8]: 11.4 h; Activity (Mus musculus [9]): Active; IC50 [10]: 860 nM; inhibition [11]: 22.7%; Activity [12]: Non-Toxic; Activity (Mus musculus [13]): 648.21 µM; Activity (Mus musculus [14]): Active; Cmax [15]: 2090 ng/mL; Activity (Mus musculus [16]): Active; Activity (Mus musculus [17]): Active; AUC(0-inf) [18]: 14700 ng·h/mL; Activity (HK-2 [19]): Toxic; Activity (Mus musculus [20]): 317.1 µM

Which Activity [3] does the source give for C/C(=C\Cc1c(O)ccc2c1OC(c1cccs1)CC2=O)C(=O)O (centres undefined) here?
The Activity was “Non-Toxic”.

And the half-life [4]?
Its half-life is 271 min.

And the Activity [5]?
The Activity was “Non-Toxic”.

What about the Tmax [6] of the same compound?
The Tmax was 1.63 h.

And the Activity (HK-2 [7])?
The Activity was “Non-Toxic”.

What about the MRT inf [8] of the same compound?
The MRT inf was 8.48 h.

What about the Activity (Mus musculus [9]) of the same compound?
Its Activity is “Active”.

And the IC50 [10]?
The IC50 was 360 nM.

And the inhibition [11]?
Its inhibition is 25.5%.

And the Activity [12]?
The Activity was “Non-Toxic”.

What about the Activity (Mus musculus [13]) of the same compound?
Its Activity is 630.52 µM.

What about the Activity (Mus musculus [14]) of the same compound?
The Activity was “Active”.

What about the Cmax [15] of the same compound?
The Cmax was 1410 ng/mL.

What about the Activity (Mus musculus [16]) of the same compound?
Its Activity is “Active”.

And the Activity (Mus musculus [17])?
The Activity was “Active”.

And the AUC(0-inf) [18]?
Its AUC(0-inf) is 5560 ng·h/mL.

And the Activity (HK-2 [19])?
Its Activity is “Toxic”.

What about the Activity (Mus musculus [20]) of the same compound?
The Activity was 366.12 µM.

With O=C(O)/C=C/Cc1cccc2c1OC(c1cc3ccccc3s1)CC2=O (centres undefined) as the compound, how does the IC50 [10] read?
The IC50 was 1890 nM.

For CC(C)=CCc1c(O)ccc2c1OC(c1cccc(F)c1)CC2=O (centres undefined), which inhibition at 5 µM [1] is on record?
Its inhibition at 5 µM is 22.7%.

For CC(C)=CCc1c(O)ccc2c1OC(c1ccc(O)cc1)CC2=O (centres undefined), which inhibition at 5 µM [1] is on record?
Its inhibition at 5 µM is 93.3%.

What about the half-life [4] of the same compound?
The half-life was 361 min.

And the IC50 [2]?
The IC50 was 220 nM.

And the Tmax [6]?
Its Tmax is 1.12 h.

What about the MRT inf [8] of the same compound?
The MRT inf was 9.16 h.

And the IC50 [10]?
The IC50 was 240 nM.

And the inhibition [11]?
Its inhibition is 95.5%.

And the IC50 [21]?
Its IC50 is 1840 nM.

And the Cmax [15]?
The Cmax was 1110 ng/mL.

And the AUC(0-inf) [18]?
Its AUC(0-inf) is 7460 ng·h/mL.

With CC(C)=CCc1c(O)ccc2c1OC(c1cccs1)CC2=O (centres undefined) as the compound, how does the inhibition at 5 µM [1] read?
Its inhibition at 5 µM is 19.8%.

With O=C(O)/C=C/Cc1c(O)ccc2c1OC(c1cccs1)CC2=O (centres undefined) as the compound, how does the IC50 [10] read?
Its IC50 is 2180 nM.

For C/C(=C\Cc1cccc2c1OC(c1ccc(O)cc1)CC2=O)C(=O)O (centres undefined), which IC50 [10] is on record?
Its IC50 is 2680 nM.

For CC(C)=CCc1c(O)ccc2c1OC(c1ccc(F)cc1)CC2=O (centres undefined), which inhibition at 5 µM [1] is on record?
Its inhibition at 5 µM is 4.4%.

For CC(C)=CCc1c(O)ccc2c1OC(c1cc3ccccc3s1)CC2=O (centres undefined), which inhibition at 5 µM [1] is on record?
Its inhibition at 5 µM is 13.4%.

With Cc1ccc2c(c1C/C=C/S(=O)(=O)c1ccccc1)OC(c1ccsc1)CC2=O (centres undefined) as the compound, how does the IC50 [10] read?
Its IC50 is 4430 nM.

With O=C(O)CSc1nnc(Br)n1-c1ccc(C2CC2)c2ccccc12 as the compound, how does the Activity [3] read?
The Activity was “Non-Toxic”.

What about the Activity [5] of the same compound?
The Activity was “Non-Toxic”.

And the Activity (Mus musculus [9])?
The Activity was “inactive”.

And the Activity [12]?
The Activity was “Non-Toxic”.

And the Activity (Mus musculus [13])?
Its Activity is 696.8 µM.

What about the Activity (Mus musculus [14]) of the same compound?
Its Activity is “inactive”.

What about the Activity (Mus musculus [16]) of the same compound?
The Activity was “inactive”.

And the Activity (Mus musculus [17])?
The Activity was “inactive”.

And the Activity (Mus musculus [20])?
The Activity was 380.14 µM.

For C/C(=C\Cc1c(O)ccc2c1OC(c1ccc(O)cc1)CC2=O)C(=O)O (centres undefined), which IC50 [10] is on record?
Its IC50 is 2110 nM.

Which IC50 [10] does the source give for O=C(O)/C=C/Cc1c(O)ccc2c1OC(c1ccc(O)cc1)CC2=O (centres undefined) here?
The IC50 was 3020 nM.
